Laboratory results as given in patent publication US20210379040A1, “COMBINATION TREATMENT OF LIVER DISORDERS” (Terns Pharmaceuticals, Inc., priority 2020, published 2021).
Like-named read-outs stand apart in the source and are kept apart here.

Columns and labels:
plasma SSAO [1] = target: T1, plasma SSAO (Homo sapiens, UniProt Q16853); test: Single-ascending dose clinical trial: plasma amine oxidase activity and methylamine; type: in vivo
T1 construct: from tissue; host or cells: plasma of healthy participants
T1 sequence (Q16853 27-763 limits assumed): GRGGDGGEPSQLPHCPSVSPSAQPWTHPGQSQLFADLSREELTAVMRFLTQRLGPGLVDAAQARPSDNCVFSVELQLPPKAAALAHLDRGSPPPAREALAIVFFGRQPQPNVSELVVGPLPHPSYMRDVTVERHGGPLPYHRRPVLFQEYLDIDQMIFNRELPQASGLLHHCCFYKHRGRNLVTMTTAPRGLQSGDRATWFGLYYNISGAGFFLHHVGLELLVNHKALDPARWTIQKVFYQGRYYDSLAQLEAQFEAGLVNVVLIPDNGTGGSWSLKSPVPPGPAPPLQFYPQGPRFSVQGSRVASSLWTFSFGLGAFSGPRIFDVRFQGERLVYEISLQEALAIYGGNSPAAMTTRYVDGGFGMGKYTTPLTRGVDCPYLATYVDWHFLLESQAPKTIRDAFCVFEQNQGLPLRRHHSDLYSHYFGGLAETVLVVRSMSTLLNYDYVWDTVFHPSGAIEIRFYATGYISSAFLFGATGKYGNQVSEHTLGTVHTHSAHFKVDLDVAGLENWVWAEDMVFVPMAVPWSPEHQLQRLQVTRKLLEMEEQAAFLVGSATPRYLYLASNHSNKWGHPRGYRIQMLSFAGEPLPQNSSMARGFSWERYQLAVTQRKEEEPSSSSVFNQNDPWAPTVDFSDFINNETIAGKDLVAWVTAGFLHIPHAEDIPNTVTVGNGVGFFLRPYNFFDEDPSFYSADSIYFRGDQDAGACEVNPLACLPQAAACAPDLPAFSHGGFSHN
Protocol: Safety was assessed for 7 (±3) days after dosing.
Plasma PK parameters were determined by non-compartmental analysis.
SSAO-specific amine oxidase levels in plasma were determined using a kinetic-based assay essentially as described previously (Schilter et al). Endogenous monoamine oxidases A and B were inhibited by adding pargyline to plasma samples prior to measuring H2O2 generation levels in placebo and active recipients. Maximum inhibition was defined by pre-dose (baseline) samples additionally treated with a high dose of Compound 2 and percent changes in SSAO-specific activity were calculated relative to baseline samples.

plasma SSAO [2] = target: T1, plasma SSAO; test: Multiple once daily dose study: plasma amine oxidase activity and methylamine; type: in vivo
Protocol: 3 groups of 8 healthy participants were randomized to receive multiple once daily (QD) doses of Compound 2 or matching placebo in a 3:1 ratio for 7 days (1 mg and 4 mg) or 14 days (10 mg). Plasma levels of Compound 2 and PD biomarkers (plasma amine oxidase activity and methylamine levels) were determined at pre-dose and various timepoints post-dose. Safety was assessed for up to 14 days after last dose.

MAO-B = target: T2, MAO-B (Homo sapiens, UniProt P27338); test: Biochemical activity, MAO-B
T2 sequence (P27338 1-520): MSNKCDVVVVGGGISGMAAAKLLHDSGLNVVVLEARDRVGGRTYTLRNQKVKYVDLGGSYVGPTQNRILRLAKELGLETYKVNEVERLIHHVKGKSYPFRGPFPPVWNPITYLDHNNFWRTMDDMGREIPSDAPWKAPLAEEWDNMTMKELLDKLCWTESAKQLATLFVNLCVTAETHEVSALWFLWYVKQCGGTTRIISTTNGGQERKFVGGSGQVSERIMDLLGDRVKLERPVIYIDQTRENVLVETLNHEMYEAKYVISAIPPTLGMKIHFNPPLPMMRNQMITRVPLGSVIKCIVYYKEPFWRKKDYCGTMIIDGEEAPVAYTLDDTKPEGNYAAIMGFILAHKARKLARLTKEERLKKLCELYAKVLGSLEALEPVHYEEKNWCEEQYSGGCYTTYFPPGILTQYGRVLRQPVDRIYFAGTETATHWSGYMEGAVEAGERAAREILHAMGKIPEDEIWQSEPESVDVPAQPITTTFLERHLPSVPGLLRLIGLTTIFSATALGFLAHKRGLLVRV

[3] = Tissue distribution of radiolabeled (14C) compound, oral 5 mg/kg; type: in vivo; conditions: Long-Evans rats, oral 5 mg/kg (100 μCi/kg), up to 168 hours
Protocol: Plasma, liver, small intestine, cecum, kidney, lung, heart and skin tissue samples were collected up to 168 hours, and the amount of radioactive material at various time points was measured.

dog hepatocytes = test: In vitro metabolic stability in cryopreserved hepatocytes (dog); type: in vitro ADME; conditions: Beagle Dog
Protocol: (§1) In vitro half-life values were determined and scaled to predict hepatic clearance (CLpred) and hepatic extraction using the well-stirred liver model with no correction for plasma protein as described in Obach et al., The Prediction of Human Pharmacokinetic Parameters from Preclinical and In Vitro Metabolism Data, J. of Pharmacology and Experimental Therapeutics, vol. 283, no. 1, pp. 46-58 (1997).

[4] = system: FXR-regulated gene expression in human HuH7 hepatoma cells; test: cells; conditions: Huh-7, 11 h
Protocol: EC50 values for FXR-regulated gene expression were determined using a cell-based RNA assay.

[5] = PK/PD profile, 1 mg/kg oral for 7 consecutive days; type: in vivo; conditions: cynomolgus monkeys; for Cmax / Tmax / AUC(0-t): cynomolgus monkey, plasma, po, 1 mg/kg, oral 1 mg/kg daily; for AUC(0-t): read-out: AUC0-24
human hepatocytes = test: In vitro metabolic stability in cryopreserved hepatocytes (human); type: in vitro ADME
Protocol: as §1

[6] = Pharmacokinetics assay, dog; type: in vivo, beagle dogs; conditions: plasma, iv, Beagle Dog, intravenously 1 mg/kg
Excerpt: (§2) Results are shown in FIG. 1A (IV administration) and FIG. 1B (oral administration), and in Table 2. […] Smaller Vdss in monkeys is correlated with higher plasma protein binding.

[7] = Pharmacokinetics assay, monkey; type: in vivo, cynomolgus monkeys; conditions: plasma, iv, Cynomolgus Monkey, intravenously 0.3 mg/kg
Excerpt: as §2

[8] = read-out: IV Terminal t1/2 (converted)

**Q.** With `COC1CCN(c2ncc(OC/C(=C/F)CN)cn2)CC1` [Compound 2] as the molecule, how does the “inhibition of plasma SSAO activity” value (plasma SSAO [1]; 4 hours post-dose, all dose cohorts (1, 3, 6, 10 mg single dose)) read?
**A.** near complete inhibition

**Q.** What about the “duration of continued suppression of plasma SSAO activity” value (plasma SSAO [1]; after a single dose) of the same molecule?
**A.** up to 1 week

**Q.** What about the plasma methylamine (plasma SSAO [1]; single dose 1, 3, 6, 10 mg) of the same molecule?
**A.** Dose-dependent increases

**Q.** What about the “duration of continued suppression of plasma SSAO activity after last dose” value (plasma SSAO [2]; 10 mg cohort (QD, 14 days)) of the same molecule?
**A.** up to 2 weeks

**Q.** What about the “inhibition of plasma SSAO activity” value (plasma SSAO [2]; Day 1, all dose cohorts) of the same molecule?
**A.** Near complete inhibition

**Q.** And the Plasma methylamine levels (plasma SSAO [2]; QD 1, 4, 10 mg)?
**A.** increased in a greater than dose proportional manner

**Q.** What about the IC50 (MAO-B) of the same molecule?
**A.** > 50000 nM

**Q.** Which “tissues with the most radioactive material” value [3] does the source give for `Cn1cc(C(=O)O)c2ccc(N3CCC(OCc4c(-c5c(Cl)cccc5Cl)noc4C4CC4)CC3)cc21` [Compound 1] here?
**A.** Liver, small intestine, and cecum had the most radioactive material

**Q.** And the “Hepatic Extraction” value (dog hepatocytes)?
**A.** 71.0 ± 2.49%

**Q.** And the “In vitro Metabolic CLpred” value (dog hepatocytes; well-stirred liver model)?
**A.** 22 ± 0.83 mL/min/kg

**Q.** What about the EC50 ([4]; read-out: EC50, BSEP Gene induction/HuH7) of the same molecule?
**A.** 40 nM

**Q.** What about the EC50 ([4]; read-out: EC50, FGF-19 Gene Induction/HuH7) of the same molecule?
**A.** 40 nM

**Q.** What about the EC50 ([4]; read-out: EC50, SHP Gene induction/HuH7) of the same molecule?
**A.** 50 nM

**Q.** What about the Cmax ([5]; Day 1) of the same molecule?
**A.** 257 ± 124 ng/mL

**Q.** And the Tmax ([5]; Day 1)?
**A.** 1.83 ± 1.17 h

**Q.** And the AUC(0-t) ([5]; Day 1)?
**A.** 1000 ± 419 ng·h/mL

**Q.** What about the Cmax ([5]; Day 7) of the same molecule?
**A.** 221 ± 121 ng/mL

**Q.** What about the Tmax ([5]; Day 7) of the same molecule?
**A.** 1.25 ± 0.61 h

**Q.** What about the AUC(0-t) ([5]; Day 7) of the same molecule?
**A.** 858 ± 425 ng·h/mL

**Q.** What about the “suppression of the pharmacodynamics biomarker 7AC4” value ([5]; 1 mg/kg oral, 7 consecutive days) of the same molecule?
**A.** sustained suppression

**Q.** And the “Hepatic Extraction” value (human hepatocytes)?
**A.** 67.0 ± 1.73%

**Q.** What about the “In vitro Metabolic CLpred” value (human hepatocytes; well-stirred liver model) of the same molecule?
**A.** 13.8 ± 3.67 mL/min/kg

**Q.** What about the half-life [6, 8] of the same molecule?
**A.** 5.67 h

**Q.** And the Vd ([6]; read-out: Vdss)?
**A.** 1.92 L/kg

**Q.** And the clearance [7]?
**A.** 5 mL/min/kg

**Q.** And the half-life [7, 8]?
**A.** 1.32 h

**Q.** What about the Vd ([7]; read-out: Vdss) of the same molecule?
**A.** 0.6 L/kg
